Data: patent publication US10364415B2, “1,4-dioxane-degrading bacteria culture method, medium, and 1,4-dioxane treatment method using 1,4-dioxane-degrading bacteria” (TAISEI CORPORATION, priority 2014, dated 2019)

Tests used:
[1] = tested on: strain CB1190, strain D11, and strain D17; assay: Proliferation of 1,4-dioxane-degrading bacteria in the presence of diethylene glycol (Example 1); type: cell-based; settings: 28° C., nine days
Protocol: Strain CB1190, strain D11, and strain D17 were used as 1,4-dioxane-degrading bacteria. Each degradation bacterium was cultured for ten days using a CGY medium (casitone: 5 g/L, glycerin: 5 g/L, yeast extract: 1 g/L) containing 1,4-dioxane at a concentration of 500 mg/L. After cultivation, the bacterial cells were harvested and washed with a centrifugal separator, and then mixed with 20 mL of physiological saline, in such a manner that an inoculum suspension was obtained. It should be noted that an inoculum suspension (OD600: approximately 10) which was turbidity-standardized using a spectrophotometer was used as the inoculum suspension. […]
The bacterial cells in the culture solution were collected as […] by suction filtration after the culture was finished. Then, the […] was dried at 105° C. overnight, and the weight of the bacterial cells was measured, in such a manner that the bacterial cell concentration (mg-dry cell/L) was obtained. Proliferation of the bacterial cells was evaluated by Δ bacterial cell concentration obtained by subtracting the initial bacterial cell concentration from the bacterial cell concentration on the ninth day of culture. […]

strain D17 = assay: Bacterial cell concentration measurement at different diethylene glycol concentrations (Examples 3 to 7); type: cell-based, Pseudonocardia sp. D17; settings: diethylene glycol increased from 1 g/L to 10 g/L, seven days
Protocol: 100 mL of a liquid medium (medium composition: K2HPO4: 1 g/L, (NH4)2SO4: 1 g/L, NaCl: 50 mg/L, MgSO4.7H2O: 200 mg/L, FeCl3: 10 mg/L, CaCl2: 50 mg/L, pH: 7.3) containing diethylene glycol of 1 g/L was added to an Erlenmeyer flask equipped with baffles with a volume of 300 mL. Next, strain D17 which was inoculated in the MGY medium in advance was cultured (initial bacterial cell concentration: 111 mg-dry cell/L) and was subjected to the rotary shaking culture at 28° C. and 120 rpm for seven days.
Degradation bacteria were cultured in the same manner as in Example 3 except that the concentration of diethylene glycol in the liquid medium was set to be 5 g/L. […]
The bacterial cells in the culture solution were collected as a filter residue through suction filtration after the cultivation was finished and the bacterial cells were dried at 105° C. overnight, and then the weight of the collected bacterial cells was measured. The bacterial cell concentration (mg-dry cell/L) was obtained from the value of the measured bacterial cell weight. […] The proliferation property of the bacterial cells was evaluated by Δ bacterial cell concentration which was obtained by subtracting the initial bacterial cell concentration from the bacterial cell concentration on the seventh day of culturing.

SDIMO-bearing bacteria = assay: PCR detection of SDIMO gene in contaminated soil cultured with diethylene glycol (Example 9); type: cell-based; settings: seven contaminated soil samples, diethylene glycol 20 g/L, six days
Protocol: The proliferation of SDIMO-bearing bacteria by culturing in a medium supplemented with diethylene glycol was investigated in seven types of soil collected from different places at sites contaminated with 1,4-dioxane. It should be noted that the proliferation of SDIMO-bearing bacteria was evaluated by an increase in PCR amplification products of about 420 bp derived from a SDIMO-encoding gene (a SDIMO gene).
The soil with a wet weight of 10 g was added to an Erlenmeyer flask of 300 ml in which the liquid medium of 90 ml (medium composition: K2HPO4: 1 g/L, (NH4)2SO4: 1 g/L, NaCl: 50 mg/L, MgSO4.7H2O: 200 mg/L, FeCl3: 10 mg/L, CaCl2: 50 mg/L, pH: 7.0) was placed. Then, diethylene glycol was added such that the final concentration became 20 g/L and the rotary shaking culture was carried out at 28° C. and 120 rpm.
The samples were collected immediately after diethylene glycol was added and after six days by 5 ml, respectively, and a supernatant was removed by centrifugation (10,000×g, 4° C., 5 min), and then DNA was recovered from the soil of 0.5 g (of wet weight). For DNA extraction, a soil DNA extraction kit (manufactured by Nippon Gene Co., Ltd., product name: ISOIL for Beads Beating) was used and the extracted DNA was purified using a DNA fragment purification kit (Toyobo Co., Ltd., product name: MagExtractor-PCR & Gel Clean up-). […]

Compound: OCCOCCO [diethylene glycol]
- proliferation properties (Δ bacterial cell concentration) ([1]; diethylene glycol 1 g/L as carbon source, all three degradation bacteria): could grow using diethylene glycol as a carbon source
- proliferation properties (Δ bacterial cell concentration) ([1]; diethylene glycol 1 g/L, strain D17): extremely high proliferation properties
- bacterial cell concentration (strain D17): increased
- PCR amplification product of about 420 bp (SDIMO gene) before and after culturing (SDIMO-bearing bacteria): preferentially proliferated SDIMO-bearing bacteria
